According to patent US20200216416A1, “QUINOLINE COMPOUNDS AS INHIBITORS OF TAM AND MET KINASES” (Array BioPharma Inc., priority 2019, published 2020):

Columns and labels:
[1] = molecular target: T1, His-tagged recombinant human AXL cytoplasmic domain (Homo sapiens, UniProt P30530); test: AXL Enzyme Assay (LanthaScreen Eu Kinase Binding); conditions: averaged IC50; 60-minute incubation at 22° C.; TR-FRET
T1 construct: His-tagged recombinant human AXL cytoplasmic domain
T1 sequence (P30530 473-894 limits assumed): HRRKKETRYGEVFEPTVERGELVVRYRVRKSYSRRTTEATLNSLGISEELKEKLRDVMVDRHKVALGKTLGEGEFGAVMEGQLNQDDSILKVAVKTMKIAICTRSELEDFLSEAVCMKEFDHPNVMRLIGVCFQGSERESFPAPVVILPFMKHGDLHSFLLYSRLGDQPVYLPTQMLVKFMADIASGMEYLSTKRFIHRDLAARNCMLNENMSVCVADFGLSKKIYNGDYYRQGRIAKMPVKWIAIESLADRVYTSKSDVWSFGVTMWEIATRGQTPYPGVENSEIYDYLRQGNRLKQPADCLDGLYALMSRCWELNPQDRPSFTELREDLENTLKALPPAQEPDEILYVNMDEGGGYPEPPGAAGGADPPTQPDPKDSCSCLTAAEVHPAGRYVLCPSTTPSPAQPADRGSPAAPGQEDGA
Protocol: Compounds disclosed herein were screened for their ability to inhibit AXL kinase using Invitrogen's LanthaScreen™Eu Kinase Binding technology. His-tagged recombinant human AXL cytoplasmic domain was incubated with 20 nM Alexa-Fluor® Tracer 236 (PR9078A), 2 nM biotinylated anti-His (Cat. No. M4408), and 2 nM europium-labeled Streptavidin (Cat. No. PV5899) along with test compound in a buffer consisting of 25 mM HEPES, pH 7.4, 10 mM MgCl2, 0.01% Triton X-100, and 2% DMSO. Compounds were typically prepared in a threefold serial dilution in DMSO and added to the assay to give the appropriate final concentration. After a 60-minute incubation at 22° C., the reaction was measured using a PerkinElmer EnVision multimode plate reader via TR-FRET dual wavelength detection, and the percent of control (POC) was calculated using a ratiometric emission factor. […] The POC values are fit to a 4 parameter logistic curve and the IC50 value is point where the curve crosses 50 POC.

[2] = molecular target: T2, human MET kinase L1195V (Homo sapiens, UniProt P08581, L1195V); test: c-Met Enzyme Assay, L1195V mutant; format: binding; conditions: averaged IC50; L1195V 10 nM; 60-minute incubation at 22° C.
T2 construct: GST-tagged recombinant human MET kinase domain; purchased Signal Chem
Protocol: The affinity of compound binding to wild type and mutant human MET kinases was measured using Invitrogen's LanthaScreen™ Eu Kinase Binding technology. Briefly, GST-tagged recombinant human MET kinase domain from Signal Chem (see Table 8 below for concentration in assay) was incubated with 50 nM Alexa-Fluor® Tracer 236 (Invitrogen Cat No. PR9078A) and 2 nM Europium-anti-GST (Invitrogen Cat. No. A15116) along with test compound in a buffer consisting of 25 mM HEPES, pH 7.4, 10 mM MgCl2, 0.01% Triton X-100, 1mM DTT, and 2% DMSO. Compounds were typically prepared in a three-fold serial dilution in DMSO and added to the assay to give the appropriate final concentration. After a 60-minute incubation at 22° C., the reaction was measured using a PerkinElmer EnVision multimode plate reader via TR-FRET dual wavelength detection, and the percent of control (POC) calculated using a ratiometric emission factor. […] The POC values were fit to a 4 parameter logistic curve and the IC50 value is point where the curve crosses 50 POC.

T2 sequence (P08581 1078-1345 L1195V limits assumed): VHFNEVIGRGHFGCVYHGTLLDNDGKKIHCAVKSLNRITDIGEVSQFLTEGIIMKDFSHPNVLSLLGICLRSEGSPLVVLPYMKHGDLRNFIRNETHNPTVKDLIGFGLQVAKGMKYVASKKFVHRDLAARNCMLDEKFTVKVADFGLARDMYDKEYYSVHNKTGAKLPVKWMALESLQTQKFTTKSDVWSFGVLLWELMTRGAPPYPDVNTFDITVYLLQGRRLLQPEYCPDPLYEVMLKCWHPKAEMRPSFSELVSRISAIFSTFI

| IC50 [1] | IC50 [2] | SMILES |
| --- | --- | --- |
| 1 nM | 7.1 nM | COc1cc2nccc(Oc3ccc(NC(=O)c4cn(C(C)C)cc(-c5ccc(F)cc5)c4=O)nc3)c2cc1OC [Example 1] |
| 1 nM | 87.1 nM | COc1cc2nccc(Oc3ccc(NC(=O)c4cn(C)cc(-c5ccc(F)cc5)c4=O)nc3)c2cc1OC [Example 2] |
| 1 nM | 15.3 nM | CCn1cc(C(=O)Nc2ccc(Oc3ccnc4cc(OC)c(OC)cc34)cn2)c(=O)c(-c2ccc(F)cc2)c1 [Example 3] |
| 1 nM | 21.9 nM | COc1cc2nccc(Oc3ccc(NC(=O)c4cn(C(C)C)cc(-c5ccc(F)cc5F)c4=O)nc3)c2cc1OC [Example 4] |
| 2 nM | 9.8 nM | COc1cc2nccc(Oc3ccc(NC(=O)c4cn(C(C)C)cc(-c5ccc(Cl)cc5)c4=O)nc3)c2cc1OC [Example 5, 5-(4-chlorophenyl)-N-(5-((6,7-dimethoxyquinolin-4-yl)oxy)pyridin-2-yl)-1-isopropyl-4-oxo-1,4-dihydropyridine-3-carboxamide] |
| 2 nM | 62.1 nM | COc1cc2nccc(Oc3ccc(NC(=O)c4cn(C(C)C)cc(-c5ccc(F)c(F)c5)c4=O)nc3)c2cc1OC [Example 6] |
| 2 nM | 7.3 nM | COCCn1cc(C(=O)Nc2ccc(Oc3ccnc4cc(OC)c(OC)cc34)cn2)c(=O)c(-c2ccc(F)cc2)c1 [Example 7, N-(5((6,7-dimethoxyquinolin-4-yl)oxy)pyridin-2-yl)-5-(4-fluorophenyl)-1-(2-methoxyethyl)-4-oxo-1,4-dihydropyridine-3-carboxamide] |
| 2 nM | 29.1 nM | COc1cc2nccc(Oc3ccc(NC(=O)c4cn(CC5CCOCC5)cc(-c5ccc(F)cc5)c4=O)nc3)c2cc1OC [Example 8, N-(5-((6,7-dimethoxyquinolin-4-yl)oxy)pyridin-2-yl)-5-(4-fluorophenyl)-4-oxo-1-((tetrahydro-2H-pyran-4-yl)methyl)-1,4-dihydropyridine-3-carboxamide] |
| 2 nM | 47.7 nM | COc1cc2nccc(Oc3ccc(NC(=O)c4cn(CC(C)(C)O)cc(-c5ccc(F)cc5)c4=O)nc3)c2cc1OC [Example 9, N-(5-((6,7-dimethoxyquinolin-4-yl)oxy)pyridin-2-yl)-5-(4-fluorophenyl)-1-(2-hydroxy-2-methylpropyl)-4-oxo-1,4-dihydropyridine-3-carboxamide] |
| 4 nM | 9.7 nM | CCCn1cc(C(=O)Nc2ccc(Oc3ccnc4cc(OC)c(OC)cc34)cn2)c(=O)c(-c2ccc(F)cc2)c1 [Example 10, N-(5((6,7-dimethoxyquinolin-4-yl)oxy)pyridin-2-yl)-5-(4-fluorophenyl)-4-oxo-1-propyl-1,4-dihydropyridine-3-carboxamide] |
| 5 nM | 21.4 nM | COc1cc2nccc(Oc3ccc(NC(=O)c4cn(CC(C)C)cc(-c5ccc(F)cc5)c4=O)nc3)c2cc1OC [Example 11, N-(5-((6,7-dimethoxyquinolin-4-yl)oxy)pyridin-2-yl)-5-(4-fluorophenyl)-1-isobutyl-4-oxo-1,4-dihydropyridine-3-carboxamide] |
| 2 nM | 33 nM | COc1cc2nccc(Oc3ccc(NC(=O)c4cn(C5CCOCC5)cc(-c5ccc(F)cc5)c4=O)nc3)c2cc1OC [Example 12, N-(5((6,7-dimethoxyquinolin-4-yl)oxy)pyridin-2-yl)-5-(4-fluorophenyl)-4-oxo-1-(tetrahydro-2H-pyran-4-yl)-1,4-dihydropyridine-3-carboxamide] |
| 2 nM | 83.8 nM | COc1cc2nccc(Oc3ccc(NC(=O)c4cn(CC(=O)N(C)C)cc(-c5ccc(F)cc5F)c4=O)nc3)c2cc1OC [Example 13, 5-(2,4-difluorophenyl)-N-(5((6,7-dimethoxyquinolin-4-yl)oxy)pyridin-2-yl)-1-(2-(dimethylamino)-2-oxoethyl)-4-oxo-1,4-dihydropyridine-3-carboxamide] |
| 2 nM | 187 nM | COc1cc2nccc(Oc3ccc(NC(=O)c4cn(CC(=O)N5CCCC5)cc(-c5ccc(F)cc5F)c4=O)nc3)c2cc1OC [Example 14] |
| 2 nM | 61.4 nM | COc1cc2nccc(Oc3ccc(NC(=O)c4cn(CC(=O)N5CCOCC5)cc(-c5ccc(F)cc5F)c4=O)nc3)c2cc1OC [Example 15, 5-(2,4-difluorophenyl)-N-(5-((6,7-dimethoxyquinolin-4-yl)oxy)pyridin-2-yl)-1-(2-morpholino-2-oxoethyl)-4-oxo-1,4-dihydropyridine-3-carboxamide] |
| 4 nM | 34.6 nM | CCC(CC)n1cc(C(=O)Nc2ccc(Oc3ccnc4cc(OC)c(OC)cc34)cn2)c(=O)c(-c2ccc(F)cc2F)c1 [Example 16, 5-(2,4-difluorophenyl)-N-(5-((6,7-dimethoxyquinolin-4yl)oxy)pyridin-2-yl)-4-oxo-1-(pentan-3-yl)-1,4-dihydropyridine-3-carboxamide] |
| 28 nM | 82.6 nM | CCCC(CCC)n1cc(C(=O)Nc2ccc(Oc3ccnc4cc(OC)c(OC)cc34)cn2)c(=O)c(-c2ccc(F)cc2F)c1 [Example 17, 5-(2,4-difluorophenyl)-N-(5-((6,7-dimethoxyquinolin-4yl)oxy)pyridin-2-yl)-1-(heptan-4-yl)-4-oxo-1,4-dihydropyridine-3-carboxamide] |
| 2 nM | 21.4 nM | COc1cc2nccc(Oc3ccc(NC(=O)c4cn(C(C)C)cc(-c5ccc(F)cc5Cl)c4=O)nc3)c2cc1OC [Example 18, 5-(2-chloro-4-fluorophenyl)-N-(5-((6,7-dimethoxyquinolin-4-yl)oxy)pyridin-2-yl)-1-isopropyl-4-oxo-1,4-dihydropyridine-3-carboxamide] |
| 2 nM | 10 nM | COc1cc2nccc(Oc3ccc(NC(=O)c4cn(C(C)C)cc(-c5ccc(F)cc5C)c4=O)nc3)c2cc1OC [Example 19, N-(5-((6,7-dimethoxyquinolin-4yl)oxy)pyridin-2-yl)-5-(4-fluoro-2-methylphenyl)-1-isopropyl-4-oxo-1,4-dihydropyridine-3-carboxamide] |
| 7 nM | – | COc1cc2nccc(Oc3ccc(NC(=O)c4c[nH]cc(-c5ccc(F)cc5)c4=O)nc3)c2cc1OC [Example 26, N-(5-((6,7-dimethoxyquinolin-4yl)oxy)pyridin-2-yl)-5-(4-fluorophenyl)-4-oxo-1,4-dihydropyridine-3-carboxamide] |
| 3 nM | – | COc1cc2nccc(Oc3ccc(NC(=O)c4cn(C(C)C)c(C(C)C)c(-c5ccc(F)cc5)c4=O)nc3)c2cc1OC [Example 38, N-(5-((6,7-dimethoxyquinolin-4yl)oxy)pyridin-2-yl)-5-(4-fluorophenyl)-1,6-diisopropyl-4-oxo-1,4-dihydropyridine-3-carboxamide] |
| 448 nM | – | COc1cc2nc(C)cc(Oc3ccc(NC(=O)c4cn(C(C)C)cc(-c5ccc(F)cc5)c4=O)nc3)c2cc1OC [Example 53, N-(5-((6,7-dimethoxy-2-methylquinolin-4-yl)oxy)pyridin-2-yl)-5-(4-fluorophenyl)-1-isopropyl-4-oxo-1,4-dihydropyridine-3-carboxamide] |
| 12 nM | – | COc1cc2ncc(C#N)c(Oc3ccc(NC(=O)c4cn(C(C)C)cc(-c5ccc(F)cc5)c4=O)nc3)c2cc1OC [Example 57, N-(5-((3-cyano-6,7-dimethoxyquinolin-4-yl)oxy)pyridin-2-yl)-5-(4-fluorophenyl)-1-isopropyl-4-oxo-1,4-dihydropyridine-3-carboxamide] |
